Tested on: 843126-344-R-J1-PDC complex spheroid viability
Experiment: Anticancer human tumor 843126-344-R-J1-PDC patient-derived melanoma cell line growth inhibition [POLQ]
Settings: for IC50: curve of first compound; for viability, T/C: stronger effect = lower value
In short: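 Growth inhibition in 3D: complex spheroids (tumor PDC, HUVEC, MSC) treated with POLQ inhibitor combinations; where Cmax unknown, highest tested concentration 10 microM, except SN-38 at 1 microM.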

[1] = second compound 0.0316 µM, first compound 0.0316 µM
[2] = second compound 0.0316 µM, first compound 0.1 µM
[3] = second compound 0.1 µM, first compound 0.0316 µM
[4] = second compound 0.1 µM, first compound 0.1 µM
[5] = second compound 0.316 µM, first compound 0.0316 µM
[6] = second compound 0.316 µM, first compound 0.1 µM
[7] = second compound 1 µM, first compound 0.0316 µM
[8] = second compound 1 µM, first compound 0.1 µM
[9] = second compound 3.16 µM, first compound 0.0316 µM
[10] = second compound 3.16 µM, first compound 0.1 µM
[11] = second compound 10 µM, first compound 0.0316 µM
[12] = second compound 10 µM, first compound 0.1 µM
[13] = second compound 0.0316 µM, first compound 0.316 µM
[14] = second compound 0.0316 µM, first compound 1 µM
[15] = second compound 0.0316 µM, first compound 3.16 µM
[16] = second compound 0.0316 µM, first compound 10 µM
[17] = second compound 0.1 µM, first compound 0.316 µM
[18] = second compound 0.1 µM, first compound 1 µM
[19] = second compound 0.1 µM, first compound 3.16 µM
[20] = second compound 0.1 µM, first compound 10 µM
[21] = second compound 0.316 µM, first compound 0.316 µM
[22] = second compound 0.316 µM, first compound 1 µM
[23] = second compound 0.316 µM, first compound 3.16 µM
[24] = second compound 0.316 µM, first compound 10 µM
[25] = second compound 1 µM, first compound 0.316 µM
[26] = second compound 1 µM, first compound 1 µM
[27] = second compound 1 µM, first compound 3.16 µM
[28] = second compound 1 µM, first compound 10 µM
[29] = second compound 3.16 µM, first compound 0.316 µM
[30] = second compound 3.16 µM, first compound 1 µM
[31] = second compound 3.16 µM, first compound 3.16 µM
[32] = second compound 3.16 µM, first compound 10 µM
[33] = second compound 10 µM, first compound 0.316 µM
[34] = second compound 10 µM, first compound 1 µM
[35] = second compound 10 µM, first compound 3.16 µM
[36] = second compound 10 µM, first compound 10 µM
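For viability, T/C in this document: spheroids exposed to drugs for seven days before readout.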

SMILES: CC[C@@]1(O)C(=O)OCc2c1cc1n(c2=O)Cc2cc3c(CN(C)C)c(O)ccc3nc2-1 + Cc1cccc(N(C)C(=O)C2C(O)CCN2c2nc(C)cc(C(F)(F)F)c2C#N)c1
- IC50 (second compound 0.0316 µM): > 0.1 µM
- IC50 (second compound 0.1 µM): > 0.1 µM
- IC50 (second compound 0.316 µM): > 0.1 µM
- IC50 (second compound 1 µM): > 0.1 µM
- IC50 (second compound 3.16 µM): > 0.1 µM
- IC50 (second compound 10 µM): 0.0972 µM
- viability, T/C (second compound 0.0316 µM, first compound 0.000316 µM): 98%
- viability, T/C (second compound 0.0316 µM, first compound 0.001 µM): 105%
- viability, T/C (second compound 0.0316 µM, first compound 0.00316 µM): 89.8%
- viability, T/C (second compound 0.0316 µM, first compound 0.01 µM): 103%
- viability, T/C [1]: 59.9%
- viability, T/C [2]: 52.5%
- viability, T/C (second compound 0.1 µM, first compound 0.000316 µM): 86%
- viability, T/C (second compound 0.1 µM, first compound 0.001 µM): 92.9%
- viability, T/C (second compound 0.1 µM, first compound 0.00316 µM): 110%
- viability, T/C (second compound 0.1 µM, first compound 0.01 µM): 80.9%
- viability, T/C [3]: 67.1%
- viability, T/C [4]: 59.7%
- viability, T/C (second compound 0.316 µM, first compound 0.000316 µM): 106%
- viability, T/C (second compound 0.316 µM, first compound 0.001 µM): 102%
- viability, T/C (second compound 0.316 µM, first compound 0.00316 µM): 93.1%
- viability, T/C (second compound 0.316 µM, first compound 0.01 µM): 83.9%
- viability, T/C [5]: 70.7%
- viability, T/C [6]: 58.5%
- viability, T/C (second compound 1 µM, first compound 0.000316 µM): 78.1%
- viability, T/C (second compound 1 µM, first compound 0.001 µM): 113%
- viability, T/C (second compound 1 µM, first compound 0.00316 µM): 89.3%
- viability, T/C (second compound 1 µM, first compound 0.01 µM): 90.3%
- viability, T/C [7]: 74%
- viability, T/C [8]: 52.8%
- viability, T/C (second compound 3.16 µM, first compound 0.000316 µM): 101%
- viability, T/C (second compound 3.16 µM, first compound 0.001 µM): 96.1%
- viability, T/C (second compound 3.16 µM, first compound 0.00316 µM): 108%
- viability, T/C (second compound 3.16 µM, first compound 0.01 µM): 105%
- viability, T/C [9]: 70%
- viability, T/C [10]: 52.3%
- viability, T/C (second compound 10 µM, first compound 0.000316 µM): 84.6%
- viability, T/C (second compound 10 µM, first compound 0.001 µM): 83.9%
- viability, T/C (second compound 10 µM, first compound 0.00316 µM): 74.6%
- viability, T/C (second compound 10 µM, first compound 0.01 µM): 87.8%
- viability, T/C [11]: 66.6%
- viability, T/C [12]: 49.6%

SMILES: CC1COCCN1c1cc(-c2ccnn2C)c2ccnc(-c3ccn[nH]3)c2n1 (stereo not drawn) + COC1C(OC(N)=O)C(O)C(Oc2ccc3c(O)c(NC(=O)c4ccc(O)c(CC=C(C)C)c4)c(=O)oc3c2C)OC1(C)C
- IC50 (second compound 0.0316 µM): 1.04 µM
- IC50 (second compound 0.1 µM): 0.875 µM
- IC50 (second compound 0.316 µM): 0.784 µM
- IC50 (second compound 1 µM): 1.27 µM
- IC50 (second compound 3.16 µM): 0.918 µM
- IC50 (second compound 10 µM): 1.1 µM
- viability, T/C [1]: 98.7%
- viability, T/C [2]: 69.8%
- viability, T/C [13]: 66.3%
- viability, T/C [14]: 54.2%
- viability, T/C [15]: 35.5%
- viability, T/C [16]: 34.2%
- viability, T/C [3]: 81.1%
- viability, T/C [4]: 76.5%
- viability, T/C [17]: 67.1%
- viability, T/C [18]: 47.2%
- viability, T/C [19]: 33.4%
- viability, T/C [20]: 26.4%
- viability, T/C [5]: 92.4%
- viability, T/C [6]: 73.7%
- viability, T/C [21]: 60.4%
- viability, T/C [22]: 46.2%
- viability, T/C [23]: 38.1%
- viability, T/C [24]: 23.7%
- viability, T/C [7]: 65.7%
- viability, T/C [8]: 77.5%
- viability, T/C [25]: 71.3%
- viability, T/C [26]: 53.5%
- viability, T/C [27]: 36.3%
- viability, T/C [28]: 32%
- viability, T/C [9]: 73.3%
- viability, T/C [10]: 83%
- viability, T/C [29]: 58.5%
- viability, T/C [30]: 45.9%
- viability, T/C [31]: 42.1%
- viability, T/C [32]: 25%
- viability, T/C [11]: 73.3%
- viability, T/C [12]: 77.5%
- viability, T/C [33]: 61.5%
- viability, T/C [34]: 46.1%
- viability, T/C [35]: 42.9%
- viability, T/C [36]: 24.3%

SMILES: CCCS(=O)(=O)Nc1ccc(F)c(C(=O)c2c[nH]c3ncc(-c4ccc(Cl)cc4)cc23)c1F + Nc1ccc(C#CCN(C(=O)Cc2ncc(C(F)(F)F)cc2C(F)(F)F)c2ccc(F)cc2)nn1
- IC50 (second compound 0.0316 µM): > 10 µM
- IC50 (second compound 0.1 µM): > 10 µM
- IC50 (second compound 0.316 µM): > 10 µM
- IC50 (second compound 1 µM): > 10 µM
- IC50 (second compound 3.16 µM): > 10 µM
- IC50 (second compound 10 µM): > 10 µM
- viability, T/C [1]: 86%
- viability, T/C [2]: 92.7%
- viability, T/C [13]: 98.9%
- viability, T/C [14]: 77.9%
- viability, T/C [15]: 77.5%
- viability, T/C [16]: 86.7%
- viability, T/C [3]: 82%
- viability, T/C [4]: 91.8%
- viability, T/C [17]: 82.8%
- viability, T/C [18]: 82.3%
- viability, T/C [19]: 78.1%
- viability, T/C [20]: 57.4%
- viability, T/C [5]: 85.8%
- viability, T/C [6]: 92.8%
- viability, T/C [21]: 88.9%
- viability, T/C [22]: 87.4%
- viability, T/C [23]: 77.5%
- viability, T/C [24]: 82%
- viability, T/C [7]: 93.5%
- viability, T/C [8]: 91.8%
- viability, T/C [25]: 71%
- viability, T/C [26]: 85.5%
- viability, T/C [27]: 77.2%
- viability, T/C [28]: 76.2%
- viability, T/C [9]: 86.4%
- viability, T/C [10]: 105%
- viability, T/C [29]: 95.2%
- viability, T/C [30]: 78%
- viability, T/C [31]: 62.7%
- viability, T/C [32]: 63.4%
- viability, T/C [11]: 93.3%
- viability, T/C [12]: 79.9%
- viability, T/C [33]: 79.7%
- viability, T/C [34]: 82.3%
- viability, T/C [35]: 74%
- viability, T/C [36]: 75.4%

SMILES: CC1COCCN1c1cc(-c2ccnn2C)c2ccnc(-c3ccn[nH]3)c2n1 (stereo not drawn) + Nc1ccc(C#CCN(C(=O)Cc2ncc(C(F)(F)F)cc2C(F)(F)F)c2ccc(F)cc2)nn1
- IC50 (second compound 0.0316 µM): 0.943 µM
- IC50 (second compound 0.1 µM): 1.11 µM
- IC50 (second compound 0.316 µM): 0.911 µM
- IC50 (second compound 1 µM): 0.738 µM
- IC50 (second compound 3.16 µM): 0.661 µM
- IC50 (second compound 10 µM): 0.51 µM
- viability, T/C [1]: 89.6%
- viability, T/C [2]: 76.3%
- viability, T/C [13]: 65.3%
- viability, T/C [14]: 48.7%
- viability, T/C [15]: 36.7%
- viability, T/C [16]: 29%
- viability, T/C [3]: 84.3%
- viability, T/C [4]: 71.2%
- viability, T/C [17]: 63.5%
- viability, T/C [18]: 48.3%
- viability, T/C [19]: 43.5%
- viability, T/C [20]: 28.6%
- viability, T/C [5]: 85.3%
- viability, T/C [6]: 77.2%
- viability, T/C [21]: 63.9%
- viability, T/C [22]: 46.6%
- viability, T/C [23]: 40.6%
- viability, T/C [24]: 30.2%
- viability, T/C [7]: 84.6%
- viability, T/C [8]: 65.8%
- viability, T/C [25]: 55.9%
- viability, T/C [26]: 49.8%
- viability, T/C [27]: 41.3%
- viability, T/C [28]: 32.8%
- viability, T/C [9]: 75.9%
- viability, T/C [10]: 70.8%
- viability, T/C [29]: 59.6%
- viability, T/C [30]: 44.5%
- viability, T/C [31]: 34.5%
- viability, T/C [32]: 29.9%
- viability, T/C [11]: 73.4%
- viability, T/C [12]: 66.4%
- viability, T/C [33]: 52.8%
- viability, T/C [34]: 43.9%
- viability, T/C [35]: 36.9%
- viability, T/C [36]: 29.1%

— PubChem BioAssay AID1963837 (Molecular Pharmacology Branch, DTP, NCI, 2024)
